# Test results reported in patent US10131664B2 (Celgene Quanticel Research, Inc., priority 2013, dated 2018).
# Columns and labels:
# THP-1 (AML) cells = assay: LSD1 CD11b cellular assay (flow cytometry); format: cell-based; conditions: Homo sapiens, 96 h; CD11b expression in THP-1 (AML) cells, flow cytometry, 4 days incubation; read-out: Cellular IC50
# Protocol: To analyze LSD1 inhibitor efficacy in cells, a CD11b flow cytometry assay was performed. LSD1 inhibition induces CD11b expression in THP-1 (AML) cells which can be measured by flow cytometry. […] LSD1 test compounds were serially diluted in DMSO. The dilutions were added to each well accordingly to a final concentration of 0.2% DMSO. The cells were incubated at 37° C. in 5% CO2 for 4 days. 250 μL of each well was transferred to a well in a 96 well round bottom plate. The plate was centrifuged at 1200 rpm at 4 degrees Celsius in a Beckman Coulter Alegra 6KR centrifuge for 5 min. The media was removed leaving the cells at the bottom of the wells. The cells were washed in 100 μL cold HBSS (Hank's Balanced Salt Solution) plus 2% BSA (Bovine Serum Albumin) solution and centrifuged at 1200 rpm at 4° C. for 5 min. The wash was removed. […] The cells were centrifuged and washed two times in 100 μl HBSS plus 2% BSA. After the final spin the cells were resuspended in 100 μL HBSS plus 2% BSA containing 1 μg/mL DAPI (4′,6-diamidino-2-phenylindole). The cells were then analyzed by flow cytometry in a BD FACSAria machine. Cells were analyzed for CD11b expression. The percent of CD11b expressing cells for each inhibitor concentration was used to determine an IC50 curve for each compound analyzed.
# full-length human LSD1 = full-length human LSD1 (Homo sapiens (Human), UniProt O60341); assay: In vitro enzyme inhibition assay LSD-1 (TR-FRET); format: biochemical; conditions: TR-FRET, 0.1 nM LSD1, 50 nM H3K4me1-biotin peptide, 2 μM FAD, pH7.3; read-out: LSD1 IC50
# Protocol: This assay determines the ability of a test compound to inhibit LSD1 demethylase activity.
# The enzymatic assay of LSD1 activity is based on Time Resolved-Fluorescence Resonance Energy Transfer (TR-FRET) detection.
# The ability of the compounds disclosed herein to inhibit LSD1 activity was quantified and the respective IC50 value was determined. Table 5 provides the IC50 values of various substituted heterocyclic compounds disclosed herein.
Structure (SMILES),IC50 (THP-1 (AML) cells) [µM],IC50 (full-length human LSD1) [µM]
"Cn1ncc2cc(-c3cnc(N4CCC(N)CC4)nc3-c3ccc(C#N)cc3)ncc21 [Example 69, 4-[2-(4-aminopiperidin-1-yl)-5-(1-methylpyrazolo[3,4-c]pyridin-5-yl)pyrimidin-4-yl]benzonitrile]",0.1 to 1,< 0.1
"N#Cc1ccc(-c2nc(N3CCC(N)CC3)ncc2-c2cnc(NC3CC3)nc2)cc1F [Example 141, 4-[2-(4-aminopiperidin-1-yl)-5-[2-(cyclopropylamino)pyrimidin-5-yl]pyrimidin-4-yl]-2-fluorobenzonitrile]",< 0.1,< 0.1
"COc1nc(N2CCCC(N)CC2)nc(-c2ccc(C#N)c(F)c2)c1-c1ccc2nn(C)cc2c1 (centres unmarked) [Example 149, 4-[2-(4-aminoazepan-1-yl)-6-methoxy-5-(2-methyl-2H-indazol-5-yl)pyrimidin-4-yl]-2-fluorobenzonitrile]",< 0.1,< 0.1
"Cc1ccc(-c2nc3ccn(C[C@@H]4CCNC4)c3cc2-c2ccc(C#N)cc2)cc1 [Example 1, 4-[5-(4-methylphenyl)-1-[[(3R)-pyrrolidin-3-yl]methyl]pyrrolo[3,2-b]pyridin-6-yl]benzonitrile]",< 0.1,< 0.1
"N#Cc1ccc(-c2nc(N3CCC4CNCC4CC3)ncc2-c2ccc3scnc3c2)cc1 (centres unmarked) [Example 146, 4-[2-(2,3,3a,4,5,7,8,8a-octahydro-1H-pyrrolo[3,4-d]azepin-6-yl)-5-(1,3-benzothiazol-5-yl)pyrimidin-4-yl]benzonitrile]",< 0.1,< 0.1
"COc1ccc(-c2cnc(N3CCC(N)CC3)nc2-c2ccc(C#N)cc2)cc1F [Example 84, 4-[2-(4-aminopiperidin-1-yl)-5-(3-fluoro-4-methoxyphenyl)pyrimidin-4-yl]benzonitrile]",< 0.1,< 0.1
"CN(C)c1ncc(-c2cnc(N3CCC(N)CC3)nc2-c2ccc(C#N)c(F)c2)cn1 [Example 134, 4-[2-(4-aminopiperidin-1-yl)-5-[2-(dimethylamino)pyrimidin-5-yl]pyrimidin-4-yl]-2-fluorobenzonitrile]",< 0.1,< 0.1
"Cn1nnc2cc(-c3cnc(N4CCC(N)CC4)nc3-c3ccc(C#N)c(F)c3)ccc21 [Example 96, 4-[2-(4-aminopiperidin-1-yl)-5-(1-methylbenzotriazol-5-yl)pyrimidin-4-yl]-2-fluorobenzonitrile]",< 0.1,< 0.1
"Cc1ccc(-c2cnc(NC3CCCNC3)nc2-c2ccc(C#N)cc2)cc1 (single isomer, unassigned; (+)) [Example 29, (+)-4-[5-(4-methylphenyl)-2-[(piperidin-3-yl)amino]pyrimidin-4-yl]benzonitrile]",0.1 to 1,
"Cc1ccc(-c2cnc(N3CC4CNCC(C3)O4)nc2-c2ccc(C#N)cc2)cc1 [Example 41, 4-[5-(4-methylphenyl)-2-{9-oxa-3,7-diazabicyclo[3.3.1]nonan-3-yl}pyrimidin-4-yl]benzonitrile]",,0.1 to 1
"Cc1ccc(-c2cnc(N3CCC4(CCNC4)CC3)nc2-c2ccc(C#N)cc2)cc1 [Example 39, 4-(2-{2,8-diazaspiro[4.5]decan-8-yl}-5-(4-methylphenyl)pyrimidin-4-yl)benzonitrile]",,< 0.1
"N#Cc1ccc(-c2nc(NC[C@H]3CCNC3)ncc2Cl)cc1 [Example 17, 4-(5-chloro-2-{[(3S)-pyrrolidin-3-ylmethyl]amino}pyrimidin-4-yl)benzonitrile]",,0.1 to 1
"Cc1ccc(-c2cnc(N3CCC4(CCCN4)CC3)nc2-c2ccc(C#N)cc2)cc1 [Example 40, 4-(2-{1,8-diazaspiro[4.5]decan-8-yl}-5-(4-methylphenyl)pyrimidin-4-yl)benzonitrile]",,< 0.1
"COc1ncc(-c2cnc(N3CCC(N)CC3)nc2-c2ccc(C#N)cc2)cn1 [Example 74, 4-[2-(4-aminopiperidin-1-yl)-5-(2-methoxypyrimidin-5-yl)pyrimidin-4-yl]benzonitrile]",,< 0.1
"N#Cc1ccc(-c2cc3c(ccn3CC3(F)CCNC3)nc2N2CCOCC2)cc1 (centres unmarked) [Example 8, 4-[1-[(3-fluoropyrrolidin-3-yl)methyl]-5-morpholin-4-ylpyrrolo[3,2-b]pyridin-6-yl]benzonitrile]",,0.1 to 1
"N#Cc1ccc(-c2nc(N3CC4CNCC(C3)O4)ncc2-c2ccc(F)cc2)cc1 [Example 42, 4-[5-(4-fluorophenyl)-2-{9-oxa-3,7-diazabicyclo[3.3.1]nonan-3-yl}pyrimidin-4-yl]benzonitrile]",,0.1 to 1
"Cc1ncc(-c2cnc(N3CCC(N)CC3)nc2-c2ccc(C#N)cc2)cn1 [Example 90, 4-[2-(4-aminopiperidin-1-yl)-5-(2-methylpyrimidin-5-yl)pyrimidin-4-yl]benzonitrile]",,< 0.1

Structure (SMILES),IC50 (THP-1 (AML) cells) [µM],IC50 (full-length human LSD1) [µM]
"Cc1ccc(-c2cnc(N3CCC4(CCNC4)C3)nc2-c2ccc(C#N)cc2)cc1 (centres unmarked) [Example 35, 4-(2-{2,7-diazaspiro[4.4]nonan-2-yl}-5-(4-methylphenyl)pyrimidin-4-yl)benzonitrile]",,< 0.1
"Cc1nn(C)cc1-c1cnc(N2CCC3CNCC3CC2)nc1-c1ccc(C#N)cc1 (centres unmarked) [Example 118, 4-[2-(2,3,3a,4,5,7,8,8a-octahydro-1H-pyrrolo[3,4-d]azepin-6-yl)-5-(1,3-dimethylpyrazol-4-yl)pyrimidin-4-yl]benzonitrile]",,< 0.1
"Cn1ncc2nc(-c3cnc(N4CCC(N)CC4)nc3-c3ccc(C#N)cc3)ncc21 [Example 88, 4-[2-(4-aminopiperidin-1-yl)-5-(1-methylpyrazolo[4,3-d]pyrimidin-5-yl)pyrimidin-4-yl]benzonitrile]",,0.1 to 1
"N#Cc1ccc(-c2nc(N3CC[C@@H]4CNC[C@@H]4CC3)ncc2-c2ccc(F)cc2)cc1 [Example 24, 4-{2-[(3aR,8aS)-decahydropyrrolo[3,4-d]azepin-6-yl]-5-(4-fluorophenyl)pyrimidin-4-yl}benzonitrile]",,< 0.1
"N#Cc1ccc(-c2nc(N3CCC(N)CC3)ncc2-c2ccc3ncnn3c2)cc1 [Example 127, 4-[2-(4-aminopiperidin-1-yl)-5-([1,2,4]triazolo[1,5-a]pyridin-6-yl)pyrimidin-4-yl]benzonitrile]",,0.1 to 1
"N#Cc1ccc(-c2nc(N3CCC(N)CC3)ncc2-c2ccn3ncnc3c2)cc1 [Example 81, 4-[2-(4-aminopiperidin-1-yl)-5-([1,2,4]triazdo[1,5-a]pyridin-7-yl)pyrimidin-4-yl]benzonitrile]",,0.1 to 1
"Cc1ccc(-c2cnc(N3CCC4(CCNCC4)C3)nc2-c2ccc(C#N)cc2)cc1 [Example 36, 4-(2-{2,8-diazaspiro[4.5]decan-2-yl}-5-(4-methylphenyl)pyrimidin-4-yl)benzonitrile]",,< 0.1
"N#Cc1ccc(-c2nc(NCC3CNCCO3)ncc2-c2ccc(F)cc2)cc1 (racemic) [Example 34, (±)-4-[5-(4-fluorophenyl)-2-[(morpholin-2-ylmethyl)amino]pyrimidin-4-yl]benzonitrile]",,0.1 to 1
"Cc1nc2cc(-c3cnc(N4CCC(N)CC4)nc3-c3ccc(C#N)cc3)ccc2n1C [Example 75, 4-[2-(4-aminopiperidin-1-yl)-5-(1,2-dimethylbenzimidazol-5-yl)pyrimidin-4-yl]benzonitrile]",,< 0.1
Cn1cc2nc(-c3cnc(N4CCC(N)CC4)nc3-c3ccc(C#N)cc3)ncc2n1 [Example 86],,0.1 to 1
"Cc1ccc(-c2nc3cnn(C4CCNCC4)c3cc2-c2ccc(C#N)cc2)cc1 [Example 48, 4-[5-(4-methylphenyl)-1-piperidin-4-ylpyrazolo[4,3-b]pyridin-6-yl]benzonitrile]",> 10,
"N#Cc1ccc(-c2nc(N3CCC4(CCNC4)CC3)ncc2-c2cnn(CC(F)(F)F)c2)cc1 [Example 121, 4-[2-(2,8-diazaspiro[4.5]decan-8-yl)-5-[1-(2,2,2-trifluoroethyl)pyrazol-4-yl]pyrimidin-4-yl]benzonitrile]",,< 0.1
N#Cc1ccc(-c2cc3c(ccn3C[C@@H]3CCNC3)nc2Cl)cc1 [Example 2],1 to 10,
"Cc1ccc(-c2cnc(NCC3CCNCC3)nc2-c2ccc(C#N)cc2)cc1 [Example 32, 4-[5-(4-methylphenyl)-2-[(piperidin-4-ylmethyl)amino]pyrimidin-4-yl]benzonitrile]",,< 0.1
"Cc1ccc(-c2cnc(NCC3(F)CCNC3)nc2-c2ccc(C#N)cc2)cc1 (single isomer, unassigned; (+)) [Example 28, (+)-4-(2-{[(3-fluoropyrrolidin-3-yl)methyl]amino}-5-(4-methylphenyl)pyrimidin-4-yl)benzonitrile]",0.1 to 1,
"Cc1ccc(-c2cnc(NC3CCNCC3)nc2-c2ccc(C#N)cc2)cc1 [Example 30, 4-[5-(4-methylphenyl)-2-[(piperidin-4-yl)amino]pyrimidin-4-yl]benzonitrile]",,< 0.1
